Data taken from the NIST ThermoML archive (doi:10.1016/j.jct.2016.07.005).
Numbers after ± are expanded uncertainties.

Experiment: xn = mol fraction of the nth substance listed
Details: 100 kPa, Liquid; for viscosity: Concentric cylinders viscometry; for mass density: Vibrating tube method

`CN1CCC[C@H]1c1cccnc1` [(-)-3-(N-methylpyrrolidino)pyridine] + OCCCO gave a viscosity (293.15 K, x1 = 0.1) of 63.86 ± 1.4 mPa·s, a viscosity (293.15 K, x1 = 0.1999) of 63.55 ± 1.4 mPa·s and a viscosity (293.15 K, x1 = 0.3) of 55.97 ± 1.2 mPa·s. The viscosity (293.15 K, x1 = 0.3994) was 44.97 ± 0.98 mPa·s, the viscosity (293.15 K, x1 = 0.5) was 33.15 ± 0.72 mPa·s and the viscosity (293.15 K, x1 = 0.6004) was 22.75 ± 0.49 mPa·s. The viscosity (293.15 K, x1 = 0.7) was 14.91 ± 0.32 mPa·s, the viscosity (293.15 K, x1 = 0.8) was 9.805 ± 0.21 mPa·s and the viscosity (293.15 K, x1 = 0.9) was 6.894 ± 0.14 mPa·s. It also gave a viscosity (293.15 K, x1 = 1) of 4.694 ± 0.098 mPa·s, a mass density (293.15 K, x1 = 0.1) of 1049.36 ± 1.3 kg/m3 and a mass density (293.15 K, x1 = 0.1999) of 1045.43 ± 1.2 kg/m3. It also gave a mass density (293.15 K, x1 = 0.3) of 1041.3 ± 1.2 kg/m3, a mass density (293.15 K, x1 = 0.3994) of 1037.05 ± 1.1 kg/m3 and a mass density (293.15 K, x1 = 0.5) of 1032.67 ± 1.1 kg/m3. It also gave a mass density (293.15 K, x1 = 0.6004) of 1028.25 ± 1.1 kg/m3, a mass density (293.15 K, x1 = 0.7) of 1023.76 ± 1.1 kg/m3 and a mass density (293.15 K, x1 = 0.8) of 1019.33 ± 1 kg/m3. It also gave a mass density (293.15 K, x1 = 0.9) of 1014.74 ± 1 kg/m3, a mass density (293.15 K, x1 = 1) of 1010.23 ± 1 kg/m3 and a viscosity (298.15 K, x1 = 0.1) of 48.97 ± 1.1 mPa·s. The viscosity (298.15 K, x1 = 0.1999) was 48.13 ± 1.1 mPa·s, the viscosity (298.15 K, x1 = 0.3) was 42.26 ± 0.93 mPa·s and the viscosity (298.15 K, x1 = 0.3994) was 34.05 ± 0.74 mPa·s. For the same compound, the viscosity (298.15 K, x1 = 0.5) was 25.35 ± 0.55 mPa·s, the viscosity (298.15 K, x1 = 0.6004) was 17.71 ± 0.38 mPa·s and the viscosity (298.15 K, x1 = 0.7) was 11.93 ± 0.25 mPa·s. It also gave a viscosity (298.15 K, x1 = 0.8) of 8.105 ± 0.17 mPa·s, a viscosity (298.15 K, x1 = 0.9) of 5.832 ± 0.12 mPa·s and a viscosity (298.15 K, x1 = 1) of 4.048 ± 0.085 mPa·s. It also gave a mass density (298.15 K, x1 = 0.1) of 1045.96 ± 1.3 kg/m3, a mass density (298.15 K, x1 = 0.1999) of 1041.83 ± 1.2 kg/m3 and a mass density (298.15 K, x1 = 0.3) of 1037.55 ± 1.2 kg/m3. It also gave a mass density (298.15 K, x1 = 0.3994) of 1033.17 ± 1.1 kg/m3, a mass density (298.15 K, x1 = 0.5) of 1028.72 ± 1.1 kg/m3 and a mass density (298.15 K, x1 = 0.6004) of 1024.24 ± 1.1 kg/m3. It also gave a mass density (298.15 K, x1 = 0.7) of 1019.71 ± 1.1 kg/m3, a mass density (298.15 K, x1 = 0.8) of 1015.26 ± 1 kg/m3 and a mass density (298.15 K, x1 = 0.9) of 1010.67 ± 1 kg/m3. It also gave a mass density (298.15 K, x1 = 1) of 1006.16 ± 1 kg/m3, a viscosity (303.15 K, x1 = 0.1) of 37.97 ± 0.85 mPa·s and a viscosity (303.15 K, x1 = 0.1999) of 36.9 ± 0.82 mPa·s. For the same compound, the viscosity (303.15 K, x1 = 0.3) was 32.31 ± 0.71 mPa·s, the viscosity (303.15 K, x1 = 0.3994) was 26.12 ± 0.57 mPa·s and the viscosity (303.15 K, x1 = 0.5) was 19.64 ± 0.42 mPa·s. It also gave a viscosity (303.15 K, x1 = 0.6004) of 13.95 ± 0.3 mPa·s, a viscosity (303.15 K, x1 = 0.7) of 9.624 ± 0.2 mPa·s and a viscosity (303.15 K, x1 = 0.8) of 6.722 ± 0.14 mPa·s. The viscosity (303.15 K, x1 = 0.9) was 4.943 ± 0.1 mPa·s, the viscosity (303.15 K, x1 = 1) was 3.518 ± 0.074 mPa·s and the mass density (303.15 K, x1 = 0.1) was 1042.55 ± 1.3 kg/m3. The mass density (303.15 K, x1 = 0.1999) was 1038.21 ± 1.2 kg/m3, the mass density (303.15 K, x1 = 0.3) was 1033.78 ± 1.2 kg/m3 and the mass density (303.15 K, x1 = 0.3994) was 1029.3 ± 1.1 kg/m3. It also gave a mass density (303.15 K, x1 = 0.5) of 1024.77 ± 1.1 kg/m3, a mass density (303.15 K, x1 = 0.6004) of 1020.24 ± 1.1 kg/m3 and a mass density (303.15 K, x1 = 0.7) of 1015.68 ± 1.1 kg/m3. For the same compound, the mass density (303.15 K, x1 = 0.8) was 1011.2 ± 1 kg/m3, the mass density (303.15 K, x1 = 0.9) was 1006.61 ± 1 kg/m3 and the mass density (303.15 K, x1 = 1) was 1002.1 ± 1 kg/m3. The viscosity (308.15 K, x1 = 0.1) was 29.84 ± 0.67 mPa·s, the viscosity (308.15 K, x1 = 0.1999) was 28.71 ± 0.64 mPa·s and the viscosity (308.15 K, x1 = 0.3) was 25.12 ± 0.55 mPa·s. It also gave a viscosity (308.15 K, x1 = 0.3994) of 20.41 ± 0.44 mPa·s, a viscosity (308.15 K, x1 = 0.5) of 15.5 ± 0.34 mPa·s and a viscosity (308.15 K, x1 = 0.6004) of 11.19 ± 0.24 mPa·s. It also gave a viscosity (308.15 K, x1 = 0.7) of 7.885 ± 0.17 mPa·s, a viscosity (308.15 K, x1 = 0.8) of 5.621 ± 0.12 mPa·s and a viscosity (308.15 K, x1 = 0.9) of 4.2 ± 0.088 mPa·s. It also gave a viscosity (308.15 K, x1 = 1) of 3.088 ± 0.065 mPa·s, a mass density (308.15 K, x1 = 0.1) of 1039.14 ± 1.3 kg/m3 and a mass density (308.15 K, x1 = 0.1999) of 1034.59 ± 1.2 kg/m3. The mass density (308.15 K, x1 = 0.3) was 1030.01 ± 1.2 kg/m3, the mass density (308.15 K, x1 = 0.3994) was 1025.41 ± 1.1 kg/m3 and the mass density (308.15 K, x1 = 0.5) was 1020.81 ± 1.1 kg/m3. It also gave a mass density (308.15 K, x1 = 0.6004) of 1016.23 ± 1.1 kg/m3, a mass density (308.15 K, x1 = 0.7) of 1011.64 ± 1.1 kg/m3 and a mass density (308.15 K, x1 = 0.8) of 1007.15 ± 1 kg/m3. It also gave a mass density (308.15 K, x1 = 0.9) of 1002.55 ± 1 kg/m3, a mass density (308.15 K, x1 = 1) of 998.055 ± 1 kg/m3 and a viscosity (313.15 K, x1 = 0.1) of 23.69 ± 0.53 mPa·s. For the same compound, the viscosity (313.15 K, x1 = 0.1999) was 22.59 ± 0.5 mPa·s, the viscosity (313.15 K, x1 = 0.3) was 19.74 ± 0.43 mPa·s and the viscosity (313.15 K, x1 = 0.3994) was 16.11 ± 0.35 mPa·s. The viscosity (313.15 K, x1 = 0.5) was 12.36 ± 0.27 mPa·s, the viscosity (313.15 K, x1 = 0.6004) was 9.06 ± 0.19 mPa·s and the viscosity (313.15 K, x1 = 0.7) was 6.513 ± 0.14 mPa·s. It also gave a viscosity (313.15 K, x1 = 0.8) of 4.749 ± 0.1 mPa·s, a viscosity (313.15 K, x1 = 0.9) of 3.625 ± 0.076 mPa·s and a viscosity (313.15 K, x1 = 1) of 2.758 ± 0.058 mPa·s. For the same compound, the mass density (313.15 K, x1 = 0.1) was 1035.71 ± 1.3 kg/m3, the mass density (313.15 K, x1 = 0.1999) was 1030.96 ± 1.2 kg/m3 and the mass density (313.15 K, x1 = 0.3) was 1026.23 ± 1.2 kg/m3. For the same compound, the mass density (313.15 K, x1 = 0.3994) was 1021.52 ± 1.1 kg/m3, the mass density (313.15 K, x1 = 0.5) was 1016.85 ± 1.1 kg/m3 and the mass density (313.15 K, x1 = 0.6004) was 1012.22 ± 1.1 kg/m3. For the same compound, the mass density (313.15 K, x1 = 0.7) was 1007.6 ± 1.1 kg/m3, the mass density (313.15 K, x1 = 0.8) was 1003.09 ± 1 kg/m3 and the mass density (313.15 K, x1 = 0.9) was 998.498 ± 1 kg/m3. It also gave a mass density (313.15 K, x1 = 1) of 994.014 ± 1 kg/m3, a viscosity (318.15 K, x1 = 0.1) of 19.28 ± 0.43 mPa·s and a viscosity (318.15 K, x1 = 0.1999) of 18.26 ± 0.4 mPa·s. It also gave a viscosity (318.15 K, x1 = 0.3) of 15.95 ± 0.35 mPa·s, a viscosity (318.15 K, x1 = 0.3994) of 13.08 ± 0.28 mPa·s and a viscosity (318.15 K, x1 = 0.5) of 10.14 ± 0.22 mPa·s. The viscosity (318.15 K, x1 = 0.6004) was 7.559 ± 0.16 mPa·s, the viscosity (318.15 K, x1 = 0.7) was 5.549 ± 0.12 mPa·s and the viscosity (318.15 K, x1 = 0.8) was 4.128 ± 0.088 mPa·s. The viscosity (318.15 K, x1 = 0.9) was 3.18 ± 0.067 mPa·s, the viscosity (318.15 K, x1 = 1) was 2.411 ± 0.051 mPa·s and the mass density (318.15 K, x1 = 0.1) was 1032.27 ± 1.2 kg/m3. It also gave a mass density (318.15 K, x1 = 0.1999) of 1027.32 ± 1.2 kg/m3, a mass density (318.15 K, x1 = 0.3) of 1022.43 ± 1.2 kg/m3 and a mass density (318.15 K, x1 = 0.3994) of 1017.62 ± 1.1 kg/m3. It also gave a mass density (318.15 K, x1 = 0.5) of 1012.88 ± 1.1 kg/m3, a mass density (318.15 K, x1 = 0.6004) of 1008.21 ± 1.1 kg/m3 and a mass density (318.15 K, x1 = 0.7) of 1003.56 ± 1.1 kg/m3. The mass density (318.15 K, x1 = 0.8) was 999.04 ± 1 kg/m3, the mass density (318.15 K, x1 = 0.9) was 994.453 ± 1 kg/m3 and the mass density (318.15 K, x1 = 1) was 989.984 ± 1 kg/m3. It also gave a viscosity (323.15 K, x1 = 0.1) of 15.87 ± 0.35 mPa·s, a viscosity (323.15 K, x1 = 0.1999) of 14.94 ± 0.33 mPa·s and a viscosity (323.15 K, x1 = 0.3) of 13.05 ± 0.29 mPa·s. The viscosity (323.15 K, x1 = 0.3994) was 10.76 ± 0.23 mPa·s, the viscosity (323.15 K, x1 = 0.5) was 8.437 ± 0.18 mPa·s and the viscosity (323.15 K, x1 = 0.6004) was 6.389 ± 0.14 mPa·s. The viscosity (323.15 K, x1 = 0.7) was 4.782 ± 0.1 mPa·s, the viscosity (323.15 K, x1 = 0.8) was 3.625 ± 0.077 mPa·s and the viscosity (323.15 K, x1 = 0.9) was 2.837 ± 0.06 mPa·s. It also gave a viscosity (323.15 K, x1 = 1) of 2.195 ± 0.046 mPa·s, a mass density (323.15 K, x1 = 0.1) of 1028.82 ± 1.2 kg/m3 and a mass density (323.15 K, x1 = 0.1999) of 1023.66 ± 1.2 kg/m3. For the same compound, the mass density (323.15 K, x1 = 0.3) was 1018.63 ± 1.2 kg/m3, the mass density (323.15 K, x1 = 0.3994) was 1013.72 ± 1.1 kg/m3 and the mass density (323.15 K, x1 = 0.5) was 1008.9 ± 1.1 kg/m3. It also gave a mass density (323.15 K, x1 = 0.6004) of 1004.18 ± 1.1 kg/m3, a mass density (323.15 K, x1 = 0.7) of 999.506 ± 1.1 kg/m3 and a mass density (323.15 K, x1 = 0.8) of 994.989 ± 1 kg/m3. For the same compound, the mass density (323.15 K, x1 = 0.9) was 990.406 ± 1 kg/m3 and the mass density (323.15 K, x1 = 1) was 985.962 ± 1 kg/m3.
